{
  "source": "paper PMC8097418",
  "about": "“In Vitro and In Vivo Antibacterial Activities of a Novel Quinolone Compound, OPS-2071, against Clostridioides difficile” (Antimicrobial Agents and Chemotherapy, 2021)",
  "key": {"[1]": {"test_system": "C. difficile ATCC 43255", "parameters": "method as in PMID 22869573", "settings": "cited from earlier work"}, "[2]": {"test_system": "54 clinically isolated C. difficile strains", "test": "MIC by agar dilution against 54 clinically isolated strains", "assay_type": "cell-based, Clostridioides difficile", "settings": "Clostridioides difficile, 54 clinically isolated C. difficile strains", "description": "(§1) MICs obtained using the agar dilution method were determined visually as described for the CLSI method ([41], [42]). MICs obtained using the broth dilution method were determined visually based on the CLSI method except for using Gifu anaerobic medium (GAM) broth instead of supplemented Brucella broth ([41], [42])."}, "[3]": {"test_system": "hypervirulent and nonhypervirulent strains of C. difficile (62 strains)", "test": "MIC distribution against 20 hypervirulent and 42 nonhypervirulent strains", "assay_type": "cell-based, Clostridioides difficile", "settings": "for MIC90 / MIC50: Clostridioides difficile"}, "[4]": {"test_system": "10 clinical isolates of C. difficile", "test": "MIC (broth dilution) and MBC testing, 10 clinical isolates", "assay_type": "cell-based, Clostridioides difficile", "settings": "10 clinical isolates", "description": "In this test, MIC testing was performed using the broth dilution method as recommended in the CLSI ([41]). After the MICs were determined, 10 μl of the bacterial suspension from the MIC test tube was inoculated onto agar plates and incubated at 37°C. The bacterial colonies were then counted and bacterial numbers were calculated. The MBC was considered to be the lowest concentration of the antibiotics that prevented growth and reduced the inoculum by >99.9% within 48 h, irrespective of counts of survivors at higher antibiotic concentrations."}, "[5]": {"test_system": "C. difficile ATCC 700057", "test": "MIC by agar dilution (CLSI) against quality control strain", "assay_type": "cell-based, Clostridioides difficile", "settings": "Clostridioides difficile, read-out: MIC", "description": "as §1"}, "[6]": {"test_system": "C. difficile ATCC 700057", "test": "MIC by broth dilution (GAM broth)", "assay_type": "cell-based, Clostridioides difficile", "settings": "Clostridioides difficile, read-out: MIC", "description": "as §1"}, "[7]": {"test_system": "C. difficile ATCC 700057", "assay_type": "cell-based, Clostridioides difficile"}, "[8]": {"test_system": "C. difficile ATCC 700057", "test": "Mutant prevention concentration", "assay_type": "cell-based, Clostridioides difficile", "settings": "approximately 10^10 CFU, 3 days", "description": "The mutant prevention concentration was measured by plating approximately 10^10 CFU of C. difficile ATCC 700057 onto a GAM agar plate containing the test agent. Inoculated plates were incubated for 3 days, and the MIC for each antibiotic that prevented the growth of colonies was determined using the agar dilution method as described by the CLSI ([41]). The MIC values of grown colonies were compared to determine which bacteria were resistant. The MPC was defined as the lowest concentration that prevented the growth of resistant bacteria."}, "[9]": {"test_system": "C. difficile ATCC 700057", "test": "Postantibiotic effect (PAE)", "assay_type": "cell-based, Clostridioides difficile", "settings": "for Postantibiotic effect: 1 h exposure", "description": "C. difficile ATCC 700057 was cultured in GAM agar and adjusted in GAM broth to approximately 10^6 CFU/ml. The bacterial suspensions were preincubated at 37°C for 1 h. […] After preincubation, test and reference solutions were added to each bacterial suspension in a test tube, and the suspensions were cultured for 1 h. After exposure to the test compounds, bacterial suspensions were washed with GAM broth and cultured for 6 h. […] The PAE was defined according to Craig and Gudmundsson as PAE = T − C, where T is the time required for the viable counts of the exposed bacteria to increase by 1 log10 above the counts observed immediately after washing, and C is the corresponding time for the antibiotic unexposed controls ([44])."}, "[10]": {"test_system": "C. difficile ATCC 43255", "test": "In vivo hamster model of C. difficile infection", "parameters": "species or system golden Syrian hamsters", "description": "C. difficile ATCC 43255 was cultured on GAM agar, and a bacterial suspension was prepared in saline ([26]). […] Hamsters were infected using oral gavage with 0.5 ml of suspension containing approximately 10^6 CFU of C. difficile (day −1). The next day, the animals were administered clindamycin phosphate (0.2 mg/ml in water) by oral gavage at a dose of 5 ml/kg of body weight, for a final dose of 1 mg/kg (day 0). The animals were allocated to the test groups using a stratified randomization method based on the body weight of each infected animal. The test compounds were administered by oral gavage once daily for 5 days (OPS-2071, 0.008 to 1 mg/kg; fidaxomicin, 0.04 mg/kg to 5 mg/kg; vancomycin, 0.04 to 5 mg/kg [5-fold dilution]). Infected control animals were administered 5% (wt/vol) gum arabic solution by oral gavage. […] The cecal contents of dead animals were tested for toxin A and toxin B using C.Diff Quik Chek Complete (Abbott Diagnostics Medical Co., Ltd., Tokyo, Japan) to confirm that the death of the animal was due to CDI.\nThe statistical significance of OPS-2071, fidaxomicin, and vancomycin treatment was analyzed at all doses against vehicle. Survival curves were estimated for each group using the Kaplan-Meier method. Differences in survival homogeneity in each group were evaluated with a log-rank test with Dunnett-type (two-sided) comparison."}, "[11]": {"test_system": "C. difficile ATCC 43255", "test": "MIC against the infection strain", "assay_type": "cell-based, Clostridioides difficile"}, "[12]": {"test_system": "C. difficile ATCC 700057", "test": "Effect of pH on MIC (agar dilution)", "assay_type": "cell-based, Clostridioides difficile", "settings": "Clostridioides difficile"}, "[13]": {"settings": "plasma concentrations in the low nanogram per milliliter range or lower; cited from earlier work"}, "[14]": {"settings": "nonhypervirulent strains (n = 42)"}},
  "note": "Like-named read-outs stand apart in the source and are kept apart here.",
  "data": [
    {"smiles": "CCC[C@@H]1C[C@@H](C(=O)N[C@@H]([C@H]2O[C@H](SC)[C@H](O)[C@@H](O)[C@H]2O)[C@H](C)Cl)N(C)C1", "note": "[clindamycin]", "values": [
      {"measurement": "MIC", "setting": "[1]", "value": 8, "unit": "mg/L"}
    ]},
    {"smiles": "CCc1c(Cl)c(O)c(Cl)c(O)c1C(=O)O[C@H]1[C@H](O)[C@H](OC)[C@H](OC/C2=C\\C=C\\C[C@H](O)/C(C)=C/[C@H](CC)[C@@H](O[C@@H]3OC(C)(C)[C@@H](OC(=O)C(C)C)[C@H](O)[C@@H]3O)/C(C)=C/C(C)=C/C[C@@H]([C@@H](C)O)OC2=O)O[C@@H]1C", "note": "[Fidaxomicin]", "values": [
      {"measurement": "MIC90", "setting": "[2]", "value": 8, "unit": "mg/L"},
      {"measurement": "MIC50", "setting": "[2]; read-out: MIC50", "value": 0.063, "unit": "mg/L"},
      {"measurement": "MIC90", "setting": "[3]; all 62 strains", "value": 0.25, "unit": "mg/L"},
      {"measurement": "MIC50", "setting": "[3]; hypervirulent strains (n = 20)", "value": 0.25, "unit": "mg/L"},
      {"measurement": "MIC90", "setting": "[3]; hypervirulent strains (n = 20)", "value": 0.25, "unit": "mg/L"},
      {"measurement": "MIC50", "setting": "[3]; [14]", "value": 0.06, "unit": "mg/L"},
      {"measurement": "MIC90", "setting": "[3]; [14]", "value": 0.25, "unit": "mg/L"},
      {"measurement": "Cumulative percentage of strains", "setting": "[3]; Hyp (n = 20), MIC 0.063 μg/ml", "value": 0, "unit": "%"},
      {"measurement": "Cumulative percentage of strains", "setting": "[3]; Non-hyp (n = 42), MIC 0.008 μg/ml", "value": 5, "unit": "%"},
      {"measurement": "Cumulative percentage of strains", "setting": "[3]; Non-hyp (n = 42), MIC 0.063 μg/ml", "value": 52, "unit": "%"},
      {"measurement": "Cumulative percentage of strains", "setting": "[3]; Non-hyp (n = 42), MIC <0.004 μg/ml", "value": 0, "unit": "%"},
      {"measurement": "MIC range", "setting": "[3]; hypervirulent strains (n = 20)", "value": "0.125 to 0.5", "unit": "mg/L"},
      {"measurement": "MIC range", "setting": "[3]; [14]", "value": "0.008 to 0.5", "unit": "mg/L"},
      {"measurement": "MBC Range", "setting": "[4]; >99.9% reduction within 48 h", "value": "0.06 to 0.25", "unit": "mg/L"},
      {"measurement": "MIC range", "setting": "[4]; broth dilution", "value": "0.06 to 0.25", "unit": "mg/L"},
      {"measurement": "MIC90", "setting": "[4]; Clostridioides difficile, broth dilution, read-out: MIC90", "value": 0.125, "unit": "mg/L"},
      {"measurement": "MBC", "setting": "[4]; Clostridioides difficile, read-out: MBC90", "value": 0.25, "unit": "mg/L"},
      {"measurement": "MIC", "setting": "[5]; ATCC700057, agar dilution, determined for the spontaneous resistance assay", "value": 0.06, "unit": "mg/L"},
      {"measurement": "MIC", "setting": "[5]; ATCC700057, quality control strain ATCC 700057, CLSI method", "value": 0.063, "unit": "mg/L"},
      {"measurement": "MIC", "setting": "[6]; ATCC700057, broth dilution, retested for the time-kill assay", "value": 0.03, "unit": "mg/L"},
      {"measurement": "MIC", "setting": "[6]; ATCC700057, broth method, determined for the PAE assay", "value": 0.06, "unit": "mg/L"},
      {"measurement": "Frequency of spontaneous resistance", "setting": "[7]; 4× MIC", "value": "1.47 × 10^–7"},
      {"measurement": "Frequency of spontaneous resistance", "setting": "[7]; 16× MIC", "value": "<9.17 × 10^–9"},
      {"measurement": "Frequency of spontaneous resistance", "setting": "[7]; 64× MIC", "value": "<9.17 × 10^–9"},
      {"measurement": "mutant prevention concentration (MPC)", "setting": "[8]", "value": 8, "unit": "µg/mL"},
      {"measurement": "PAEs at 4- and 8-fold the MIC", "setting": "[9]; 4- and 8-fold the MIC", "value": "2.86 to 2.77", "unit": "h"},
      {"measurement": "Postantibiotic effect", "setting": "[9]; 4× MIC", "value": 2.86, "unit": "h"},
      {"measurement": "Postantibiotic effect", "setting": "[9]; 8× MIC", "value": 2.77, "unit": "h"},
      {"measurement": "50% effective dose (ED50)", "setting": "[10]; survival on day 20, oral once daily for 5 days, probit method", "value": 1.63, "unit": "mg/kg/day"},
      {"measurement": "dosages with significant efficacy compared with vehicle control", "setting": "[10]; survival, log-rank test", "value": "≥ 1", "unit": "mg/kg"},
      {"measurement": "MIC", "setting": "[11]", "value": 0.06, "unit": "mg/L"},
      {"measurement": "MIC", "setting": "[12]; ATCC700057, pH 6", "value": 0.03, "unit": "mg/L"},
      {"measurement": "MIC", "setting": "[12]; ATCC700057, pH 7", "value": 0.06, "unit": "mg/L"},
      {"measurement": "MIC", "setting": "[12]; ATCC700057, pH 8", "value": 0.06, "unit": "mg/L"},
      {"measurement": "oral absorption", "setting": "[13]", "value": "minimally absorbed"}
    ]}
  ]
}
